Test results taken from ChEMBL document CHEMBL1201862, “PubChem BioAssay data set” (2004).
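48-hour exposure; five concentrations; linearly interpolated endpoints. GI50 = concentration required for 50% inhibition of growth.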 The source made the active and inactive calls. Rule as the data show it: active = GI50 up to about 1.1 µM and inactive = higher.

Columns and labels:
Assay in all cases: DTP human tumour cell line panel, 48 h
A549 = tested on: A549
HCC 2998 = tested on: HCC 2998
HCT-15 = tested on: HCT-15
HL-60 = tested on: HL-60
HT-29 = tested on: HT-29
MDA-N = tested on: MDA-N
Malme-3M = tested on: Malme-3M
NCI-H460 = tested on: NCI-H460
NCI/ADR-RES = tested on: NCI/ADR-RES
OVCAR-3 = tested on: OVCAR-3
OVCAR-4 = tested on: OVCAR-4
PC-3 = tested on: PC-3
SF-268 = tested on: SF-268
SK-MEL-2 = tested on: SK-MEL-2
SK-MEL-5 = tested on: SK-MEL-5
UACC-257 = tested on: UACC-257
K562 = tested on: K562
MOLT-4 = tested on: MOLT-4
SR = tested on: SR

Compound | GI50 (A549) | GI50 (HCC 2998) | GI50 (HCT-15) [µM] | GI50 (HL-60) | GI50 (HT-29) | GI50 (MDA-N) | GI50 (Malme-3M) | GI50 (NCI-H460) | GI50 (NCI/ADR-RES) | GI50 (OVCAR-3) | GI50 (OVCAR-4) | GI50 (PC-3) | GI50 (SF-268) | GI50 (SK-MEL-2) | GI50 (SK-MEL-5) | GI50 (UACC-257) | GI50 (K562) | GI50 (MOLT-4) | GI50 (SR)
COc1cc2c(c(OC)c1O)-c1ccc(OC)c(=O)cc1[C@@H](NC(=O)C(F)(F)F)CC2 | 0.472 µM (active) | 0.307 µM (active) | 1.16 | 0.0217 µM (active) | 0.0333 µM (active) | 0.0262 µM (active) | 0.0641 µM (active) | 0.207 µM (active) | 3.72 µM (inactive) | 0.0307 µM (active) | > 26.1 µM (inactive) | 0.0706 µM (active) | 0.173 µM (active) | 0.0282 µM (active) | 0.0242 µM (active) | > 100 µM (inactive) | – | – | –
CSc1ccc(/C=C2\CNC/C(=C\c3ccc(SC)cc3)C2=O)cc1 | > 237 µM (inactive) | – | > 179 | > 74.3 µM (inactive) | – | > 100 µM (inactive) | > 199 µM (inactive) | > 119 µM (inactive) | – | 36.8 µM (inactive) | – | > 100 µM (inactive) | 13.4 µM (inactive) | > 194 µM (inactive) | > 371 µM (inactive) | > 143 µM (inactive) | > 371 µM (inactive) | – | –
O=c1cc(-c2ccccc2)oc2ccc(-c3ccc4oc(-c5ccccc5)cc(=O)c4c3)cc12 | 16.7 µM (inactive) | 16 µM (inactive) | 15.8 | 10.1 µM (inactive) | 30.9 µM (inactive) | 15.4 µM (inactive) | 20.3 µM (inactive) | 19.6 µM (inactive) | 16.8 µM (inactive) | > 10 µM (inactive) | 19.3 µM (inactive) | > 10 µM (inactive) | – | 18.2 µM (inactive) | 12.9 µM (inactive) | > 10 µM (inactive) | 14.2 µM (inactive) | 11.2 µM (inactive) | –
O=C1C(Sc2ccc3ccccc3c2)=C(Sc2ccc3ccccc3c2)C(=O)c2ccccc21 | 4.72 µM (inactive) | 5.38 µM (inactive) | 9.06 | 1.1 µM (active) | 15.6 µM (inactive) | – | – | 7.82 µM (inactive) | 13.2 µM (inactive) | – | 3.47 µM (inactive) | 14.4 µM (inactive) | 11 µM (inactive) | 5.53 µM (inactive) | 2.81 µM (inactive) | 3.57 µM (inactive) | 3.47 µM (inactive) | 2.32 µM (inactive) | –
CC(=O)OCCOCn1c2c(c(=S)[nH]c1=O)CCC2 | > 100 µM (inactive) | > 100 µM (inactive) | > 100 | > 100 µM (inactive) | > 100 µM (inactive) | > 100 µM (inactive) | > 100 µM (inactive) | – | – | > 100 µM (inactive) | > 100 µM (inactive) | > 100 µM (inactive) | > 100 µM (inactive) | > 100 µM (inactive) | > 100 µM (inactive) | > 100 µM (inactive) | > 100 µM (inactive) | > 100 µM (inactive) | > 100 µM (inactive)
O=C1C=Cc2c(I)sc(I)c21 | 26.2 µM (inactive) | 18.4 µM (inactive) | 17.3 | – | 23.9 µM (inactive) | 24.9 µM (inactive) | 14.5 µM (inactive) | > 100 µM (inactive) | 23.3 µM (inactive) | 19.3 µM (inactive) | 20 µM (inactive) | – | 12.4 µM (inactive) | 20.1 µM (inactive) | 74.5 µM (inactive) | 20 µM (inactive) | 14.3 µM (inactive) | 12 µM (inactive) | 4 µM (inactive)
COc1cc(C2c3cc4c(cc3[C@@H](Nc3ccccc3)C3CO[C@@H](OC)[C@H]23)OCO4)cc(OC)c1O (stereo not given in full) | 2.13 µM (inactive) | 6.9 µM (inactive) | 3.61 | 2.87 µM (inactive) | 4.82 µM (inactive) | – | – | 1.11 µM (active) | 14.6 µM (inactive) | – | > 25 µM (inactive) | 8.81 µM (inactive) | 7.29 µM (inactive) | – | 8.55 µM (inactive) | > 25 µM (inactive) | 6.78 µM (inactive) | 0.984 µM (active) | 1.95 µM (inactive)
COc1cc(C2=N/C(=C/c3cccs3)C(=O)O2)cc(OC)c1OC | > 100 µM (inactive) | > 100 µM (inactive) | > 100 | > 100 µM (inactive) | > 100 µM (inactive) | > 100 µM (inactive) | > 100 µM (inactive) | > 100 µM (inactive) | – | > 100 µM (inactive) | > 100 µM (inactive) | > 100 µM (inactive) | > 100 µM (inactive) | > 100 µM (inactive) | > 100 µM (inactive) | > 100 µM (inactive) | > 100 µM (inactive) | > 100 µM (inactive) | > 100 µM (inactive)
COc1cc(N(CCC#N)CCC#N)ccc1/C=N\NC(=O)c1ccc(C)cc1 | > 100 µM (inactive) | – | > 100 | > 100 µM (inactive) | > 100 µM (inactive) | > 100 µM (inactive) | > 100 µM (inactive) | > 100 µM (inactive) | > 100 µM (inactive) | 75.2 µM (inactive) | > 100 µM (inactive) | 17.3 µM (inactive) | > 100 µM (inactive) | 17.3 µM (inactive) | > 100 µM (inactive) | > 100 µM (inactive) | > 100 µM (inactive) | > 100 µM (inactive) | –
COc1ccc2c(-c3ccc(OCCN(C)C)cc3)c(Oc3ccccc3)c(=O)oc2c1 | 3.37 µM (inactive) | 3.5 µM (inactive) | 3.48 | – | 7.59 µM (inactive) | – | 3.12 µM (inactive) | 7.64 µM (inactive) | 4.5 µM (inactive) | 7.64 µM (inactive) | 16.9 µM (inactive) | 6.12 µM (inactive) | 6.18 µM (inactive) | 5.33 µM (inactive) | 2.37 µM (inactive) | 2.09 µM (inactive) | 3.07 µM (inactive) | 2.71 µM (inactive) | 2.07 µM (inactive)
CSC(SC)=C(C#N)C(=O)Nc1cccc(Cl)c1 | 65.9 µM (inactive) | 75.5 µM (inactive) | 38.4 | 15.4 µM (inactive) | 46.7 µM (inactive) | 58.5 µM (inactive) | 79.4 µM (inactive) | 59.8 µM (inactive) | 32.5 µM (inactive) | – | 27.9 µM (inactive) | 50.4 µM (inactive) | > 100 µM (inactive) | > 100 µM (inactive) | 10.3 µM (inactive) | > 100 µM (inactive) | 32.4 µM (inactive) | 20.5 µM (inactive) | –
CCC#CCCCCCCCCC(F)C(=O)O (stereo not given) | > 100 µM (inactive) | > 100 µM (inactive) | > 100 | > 100 µM (inactive) | > 100 µM (inactive) | > 100 µM (inactive) | > 100 µM (inactive) | – | > 100 µM (inactive) | > 100 µM (inactive) | > 100 µM (inactive) | > 100 µM (inactive) | > 100 µM (inactive) | > 100 µM (inactive) | > 100 µM (inactive) | > 100 µM (inactive) | > 100 µM (inactive) | > 100 µM (inactive) | –
[N-]=[N+]=NC(c1cn(C2CC(O)C(CO)O2)c(=O)[nH]c1=O)C(Cl)I (stereo not given) | > 100 µM (inactive) | > 100 µM (inactive) | > 100 | – | > 100 µM (inactive) | > 100 µM (inactive) | – | > 100 µM (inactive) | > 100 µM (inactive) | > 100 µM (inactive) | > 100 µM (inactive) | – | > 100 µM (inactive) | > 100 µM (inactive) | > 100 µM (inactive) | > 100 µM (inactive) | – | > 100 µM (inactive) | –
